Results from patent US20160050920A1, “METHODS TO IMPROVE NODAL ROOTS” (Valent BioSciences Corporation, priority 2014, published 2016).

How the values were obtained:
Type in all cases: in vivo
[1] = tested on: Hybrid corn; assay: Example 4: field study, number and dry weight of roots in two corn hybrids; parameters: Dry weight of nodes 1 to 3 / Dry weight of nodes 4 to 7 / Total dry weight: unit not given here
Experimental: Another field study was conducted in order to determine the effects of GA3 on root development. Two types of hybrid corn seeds were planted during the spring season. The plants were treated with 0 or 2.75g ai/hectare of GA3 as formulated in RyzUp SmartGrass® using a TeeJet° 8002 VS spray tip on a manual sprayer set at 15 gallons per acre. Distilled water was used and non-ionic surfactant (0.25% v/v). The treatments were applied when the corn was at the V4 stage of development. The plants were then destructively harvested 32 days after treatments and their number of roots, dry weight, and dry weight of nodal roots were evaluated.

[2] = tested on: Hybrid corn; assay: Example 3: field study, root count of hybrid corn; conditions: 2.75 g ai/hectare at V4
Experimental: A field study was conducted in order to determine the effects of GA3 on root development. Hybrid corn seeds were planted and were treated when the corn was at the V4 stage of development sixteen days after planting. The treatments were 0 or 2.75g ai/hectare of GA3 as formulated in RyzUp SmartGrass® using a TeeJet® 8002 VS spray tips with a backpack sprayer set at 15 gallons per acre. Distilled water was used and non-ionic surfactant (0.25% v/v). The plants were then destructively harvested and their root count was evaluated.

[3] = tested on: Hybrid corn; assay: Example 1: potted hybrid corn, newest nodal roots after GA3 foliar spray
Text: Hybrid corn seed was planted 3.8 centimeters (cm) deep on three separate dates in Miracle-Gro Potting Mix (Miracle-Grois a registered trademark owned by OMS Investments, Inc., Miracle-Gro Potting Mix is widely available at retail home improvement stores) in 2.5 gallon pots. The pots were filled with 0.007 cubic meters of potting mix. The seeds/plants were watered as needed. The second planting was 10 days after the first planting and the third planting was nine days after the second planting. The plants were treated with 0, 8.4 g ai/hectare, or 16.8 g ai/hectare of GA3 as formulated in RyzUp SmartGrass° (available from Valent BioSciences Corp.) using a TeeJet® 8002 VS spray tip on a manual sprayer set at 15 gallons per acre. Distilled water was used and non-ionic surfactant (0.25% v/v). The treatments were applied on the same day which was 28 days after the first planting (corn was at V6 stage), 18 days after the second planting (corn was at V3 or V4 stages), and 9 days after the third planting (corn was at V1 stage). Crop Heat Units are a way of calculating growth and are calculated on a daily basis, using the maximum (Tmax) and minimum (Tmin) daily air temperatures, measured from midnight to midnight, in degrees Celsius. The Crop Heat Unit (CHU) system uses the following equation which allows growers to more accurately predict the growth of crops compared to using calendar days: Tmax+Tmin÷2−Tbase, wherein Tbase is the base temperature for the crop. During this study, there were a few days following the treatments with temperatures exceeding 24 degrees Celsius and the nights dipped below 10 degrees Celsius. The week immediately following treatment, there was one day above 24 degrees Celsius, each night dipped below 10 degrees Celsius. […] The growth rate of corn also declines when temperatures are above 30 degrees Celsius. In this study, there was an average of 10 CHUs per day following treatment and a total of 83CHUs. The corn was harvested at 1, 2, and 3 weeks after treatment. The plants were washed and roots were separated from shoots.

[4] = Hybrid 1, 2.75 g ai/hectare at V4, 32 days after treatment
[5] = Hybrid 2, 2.75 g ai/hectare at V4, 32 days after treatment

Structure (SMILES): C=C1C[C@]23C[C@@]1(O)CC[C@H]2[C@@]12C=C[C@H](O)[C@@](C)(C(=O)O1)[C@H]2[C@@H]3C(=O)O [GA3, gibberellic acid]
- Dry weight of nodes 1 to 3 [1, 4]: 2.5
- Dry weight of nodes 4 to 7 [1, 4]: 14.4
- Total dry weight [1, 4]: 16.9
- Total roots [1, 4]: 53.2
- Dry weight of nodes 1 to 3 [1, 5]: 1.7
- Dry weight of nodes 4 to 7 [1, 5]: 10.1
- Total dry weight [1, 5]: 11.8
- Total roots [1, 5]: 39
- root count, Treated Compared to Untreated % of Control ([2]; 1 day before treatment (baseline)): 100.2 % of Control
- root count, Treated Compared to Untreated % of Control ([2]; 4 days after treatment): 105.6 % of Control
- root count, Treated Compared to Untreated % of Control ([2]; 7 days after treatment): 105.5 % of Control
- root count, Treated Compared to Untreated % of Control ([2]; 13 days after treatment): 107.8 % of Control
- # of newest nodal roots exposed/6 plants ([3]; 8.4 g ai/ha GA3): 29
- # of newest nodal roots exposed/plant ([3]; 8.4 g ai/ha GA3): 4.8
- # of newest nodal roots exposed/plant with newest nodal roots present ([3]; 8.4 g ai/ha GA3): 5.8
- cm of newest nodal roots exposed/plant ([3]; 8.4 g ai/ha GA3): 4.2 cm
- cm of newest nodal roots exposed/plant with newest nodal roots ([3]; 8.4 g ai/ha GA3): 5.0 cm
- % of plants with newest nodal roots exposed ([3]; 8.4 g ai/ha GA3, foliar spray): 83%
- # of newest nodal roots exposed/6 plants ([3]; 16.8 g ai/ha GA3): 33
- # of newest nodal roots exposed/plant ([3]; 16.8 g ai/ha GA3): 5.5
- # of newest nodal roots exposed/plant with newest nodal roots present ([3]; 16.8 g ai/ha GA3): 5.5
- cm of newest nodal roots exposed/plant ([3]; 16.8 g ai/ha GA3): 5.3 cm
- cm of newest nodal roots exposed/plant with newest nodal roots ([3]; 16.8 g ai/ha GA3): 5.3 cm
- % of plants with newest nodal roots exposed ([3]; 16.8 g ai/ha GA3, foliar spray): 100%
